Laboratory results: publication PMC7382147, “An effective UFLC–MS/MS method used to study pharmacokinetics of major constituents of Fukeqianjin formula in rat plasma” (Chinese Medicine, 2020)

What was measured:
[1] = Pharmacokinetic study in rat plasma after oral administration of FKQJF extract (UFLC–MS/MS); assay type: in vivo, Sprague-Dawley (SD) rats; conditions: for AUC(0-inf) / AUC(0-t) / Cmax / half-life / MRT last / MRT inf / Tmax: Sprague-Dawley, oral FKQJF extract, single dose 3.2 g/kg, mean ± SD; for MRT last: read-out: MRT0→t; for MRT inf: read-out: MRT0→∞; for Tmax: read-out: Tmax
Experimental: (§1) Aliquots of 100 μL plasma samples were mixed with 10 μL I.S. samples (1 μg/mL, in MeOH), then added with 500 μL ACN, respectively, and vortexed for 5 min, centrifugated at 10,000 rpm for 10 min, the supernatants were transferred into clean vials and dried in a vacuum centrifugal concentrator at 1200 rpm, 37 °C. After that, 100 μL ACN was added and ultrasonic (frequency 40 kHz, power 250 W) extracted for 5 min to dissolve the dry residue, vortexed for 1 min and centrifugated at 10,000 rpm for 5 min, 1 μL of each final supernatant was injected into UFLC–MS/MS for analysis.
An 8050 UFLC–MS/MS system equipped with LC-30A binary pump, a SIL-30AC autosampler, a SPD-M30A PDA detector, a CTO-20AC column oven, and a 8050 triple quadrupole mass spectrometer with an electrospray ionization source (ESI) was applied to detect and quantify FKQJF compounds in plasma samples. Data were acquired and processed with the software LabSolution (Ver. 5.6).
A Kinetex XB-C18 HPLC column (100 × 2.1 mm, 2.6 μm) linked with an equivalent guard column was used for chromatographic separation. The aqueous phase contained 0.2% formic acid was used as mobile phase A, and organic phase ACN as mobile phase B. The gradient elution method using in this program was: 3–5 min, 28–31% B; 5–7 min, 31–34% B; 7–9 min, 34–65% B; 9–10 min, 65–95% B; 10–11.5 min, 95% B. The flow rate of mobile phase, column temperature and autosampler temperature was 0.4 mL/min, 30 °C and 4 °C, respectively. The injection volume of each sample was set as 1 μL. The main MS spectrum parameters were set as follows: the flow rate of drying gas (N2) was 10.0 L/min; the atomized gas was 3.0 L/min and the heating gas flow rate was 10.0 L/min. The main temperatures of interface, desolvation and heat block was 300 °C, 250 °C and 400 °C, respectively. And, the interface and detector voltage were 3 kV and 1.8 kV.
Rats were divided into a blank group and a FKQJF administration group (6 rats for each), and fasted for 24 h. Each rat of the administration group was given FKQJF extract suspension at a single dose of 3.2 g FKQJF/kg body weight through oral administration in parallel. Blood samples (0.25 mL) were gathered from the orbital venous plexus of each rat, with FKQJF group gathered at 14 serial timepoints (6 rats for each) as 0.083 h, 0.16 h, 0.33 h, 0.5 h, 0.75 h, 1.0 h, 1.5 h, 2 h, 3 h, 4 h, 6 h, 8 h, 12 h and 24 h after drug administration. The blood samples were centrifugated at 6000g for 10 min to isolate plasma and stored at − 20 °C for further analysis.
Data were analyzed using the Drug and Statistics (DAS) Software version 2.0 (DAS 2.0, Mathematical Pharmacology Professional Committee of China, Shanghai, China). The non-compartmental mode was applied to obtain the following PK parameters: area under the plasma concentration–time curve from time zero to the time of last quantifiable concentration (AUC0→t) and area under the plasma concentration–time curve to time infinity (AUC0→∞), the elimination half-life (t1/2), mean retention time to last sampling time (MRT0→t) and mean retention time to infinity (MRT0→∞). The maximum plasma concentration (Cmax) and the time to maximum concentration (Tmax) were observed directly from the concentration–time (C–T) curves and measured data. All data are presented as mean ± SD.

[2] = Ordinary stability of QC samples (room temperature for 8 h); assay type: physicochemical, rat; conditions: plasma QC, room temperature 8 h
Experimental: as §1
(§2) Six replicates of low, medium and high concentrations of quality control (QC) samples were used to verify the stabilities under different conditions including: place at room temperature for 8 h, freeze (− 20 °C) and thaw for three times, and store at − 20 °C for 20 days.

[3] = Freeze–thaw stability of QC samples (−20 °C, three times); assay type: physicochemical, rat; conditions: plasma QC, freeze (−20 °C) and thaw three times
Experimental: as §1, §2

[4] = Long-term stability of QC samples (−20 °C for 20 days); assay type: physicochemical, rat; conditions: plasma QC
Experimental: as §1, §2

COc1cc2c(cc1O)CC[n+]1cc3c(OC)c(OC)ccc3cc1-2 [Analyte 9, jatrorrhizine]
AUC(0-inf) [1]: 2550 ± 277 ng·h/mL
AUC(0-t) [1]: 1090 ± 110 ng·h/mL
Cmax [1]: 270 ± 24 ng/mL
half-life [1]: 9.65 ± 4.91 h
MRT last [1]: 8.96 ± 0.4 h
MRT inf [1]: 10.5 ± 4.72 h
Tmax [1]: 1.83 ± 0.29 h
Ordinary stability Mean ([2]; spiked 25 ng/mL): 104.79%
Ordinary stability Mean ([2]; spiked 75 ng/mL): 93.01%
Ordinary stability Mean ([2]; spiked 150 ng/mL): 92.51%
Freeze–thaw stability Mean ([3]; spiked 25 ng/mL): 86.77%
Freeze–thaw stability Mean ([3]; spiked 150 ng/mL): 113.07%
Long-term stability Mean ([4]; spiked 25 ng/mL): 80.63%
Long-term stability Mean ([4]; spiked 75 ng/mL): 91.97%
Long-term stability Mean ([4]; spiked 150 ng/mL): 98.06%

C=C1CC[C@@H]2[C@](C)(CO)CCC[C@@]2(C)[C@@H]1CCC1=CCOC1=O [Analyte 17, andrograpanin]
AUC(0-inf) [1]: 179 ± 14.3 ng·h/mL
AUC(0-t) [1]: 161 ± 12.7 ng·h/mL
Cmax [1]: 19.2 ± 2.48 ng/mL
half-life [1]: 5.98 ± 0.4 h
MRT last [1]: 7.3 ± 0.38 h
MRT inf [1]: 9.82 ± 0.45 h
Tmax [1]: 3.33 ± 2.31 h
shape of the plasma concentration–time curve ([1]; oral FKQJF extract 3.2 g/kg): double-peaks
Ordinary stability Mean ([2]; spiked 60 ng/mL): 81.80%
Ordinary stability Mean ([2]; spiked 300 ng/mL): 117.99%
Ordinary stability Mean ([2]; spiked 600 ng/mL): 89.06%
Freeze–thaw stability Mean ([3]; spiked 60 ng/mL): 82.73%
Freeze–thaw stability Mean ([3]; spiked 300 ng/mL): 86.68%
Freeze–thaw stability Mean ([3]; spiked 600 ng/mL): 115.83%
Long-term stability Mean ([4]; spiked 60 ng/mL): 87.43%
Long-term stability Mean ([4]; spiked 300 ng/mL): 90.66%
Long-term stability Mean ([4]; spiked 600 ng/mL): 117.51%

O=Cc1ccc2n1C[C@]1(C[C@H](O)[C@@H](CO)O1)OC2 [Analyte 3, acortatarin A]
AUC(0-inf) [1]: 489 ± 37.6 ng·h/mL
AUC(0-t) [1]: 463 ± 29.5 ng·h/mL
Cmax [1]: 102 ± 18.4 ng/mL
half-life [1]: 2.66 ± 0.69 h
MRT last [1]: 3.67 ± 0.14 h
MRT inf [1]: 4.32 ± 0.47 h
Tmax [1]: 2.33 ± 0.58 h
Ordinary stability Mean ([2]; spiked 50 ng/mL): 93.52%
Ordinary stability Mean ([2]; spiked 250 ng/mL): 84.19%
Ordinary stability Mean ([2]; spiked 500 ng/mL): 109.98%
Freeze–thaw stability Mean ([3]; spiked 50 ng/mL): 84.84%
Freeze–thaw stability Mean ([3]; spiked 250 ng/mL): 92.61%
Freeze–thaw stability Mean ([3]; spiked 500 ng/mL): 90.89%
Long-term stability Mean ([4]; spiked 50 ng/mL): 81.68%
Long-term stability Mean ([4]; spiked 250 ng/mL): 86.77%
Long-term stability Mean ([4]; spiked 500 ng/mL): 93.19%
